The values that follow come from patent US4016280A, “4,4-Diarylpiperidine compositions and use” (Byk Gulden Lomberg Chemische Fabrik GmbH, priority 1969, dated 1977).

Series [1] in a line: Acute toxicity in the albino mouse. Conditions: in vivo. On the procedure:
(§1) As stated above, the compounds of formula I have advantageous central nervous system stimulating properties. Side-effects, as they are encountered on administration of amphetamine-type stimulants, are produced to a much lesser extent by the 4,4-diphenylpiperidine compounds, if at all. […] The tests were carried out according to known and accepted pharmacological standard test methods.
(§2) a Acute toxicity 150 mg./kg. 100 mg./kg.

The subject of series [2] is albino mouse. In words: Locomotory activity (restlessness in movements). The format is in vivo. To be noted: albino mouse 5 mg/kg. perorally. On the procedure: as §1
Series [3] in a line: Potentiating effect on noradrenaline. Conditions: in vivo. The protocol:
as §1

The nature of series [4]: Increase in blood pressure. The format is in vivo. Conditions: rats and dogs. On the procedure: as §1
pressure (rats and increase

Series [5] has as its system albino mouse. In words: Antagonism in the albino mouse of reserpine (preventive and curative ptosis/sedation). Type of series: in vivo. Conditions: reserpine 2mg/kg sc.; for ED50: Mus musculus, po. On the procedure: (§3) Antagonism in the albino mouse
(§4) Com- Preventive Curative catalepsy
(§5) of tion dation p.o.) i.p.)
(§6) *drugs administered per os
(§7) **administered in doses from 50 to 300 mg/kg

Series [6] in a line: Tachyphylaxis. To be noted: in vivo. The protocol:
as §1
g Tachyphylaxis None Pronounced

Series [7] is described as follows: Exophthalmus. Conditions: in vivo. On the procedure: as §1
f Exophthalmus Absent Present

The test system of series [8] is albino mouse. In words: Antagonism in the albino mouse of tremorine tremor. Type of series: in vivo. Conditions: tremorine 15 mg/kg i.p., drug per os, Examples 28, 29: 50 to 300 mg/kg; for ED50: Mus musculus, po. The protocol: as §3, §5, §6, §7
The subject of series [9] is albino mouse. In words: Antagonism in the albino mouse of perphenazine catalepsy. The format is in vivo. To be noted: for ED50: Mus musculus, po, perphenazine 10 mg/kg p.o., drug per os, Examples 28, 29: 50 to 300 mg/kg; for Anticataleptic action (in words): mouse, in vivo. On the procedure: as §3, §4, §5, §6, §7
Series [10] deals with albino mouse. In words: Saliva secretion. The format is in vivo. The protocol: as §1
No secretion Pronounced

Series [11] concerns albino mouse. In words: General behaviour of the albino mouse with different doses. The format is in vivo. To be noted: for Locomotory activity / Restlessness Stereotype / Salivation / Vigilance: different doses per os, Examples 28, 29: 50 to 300 mg/kg; for Sedation of animals (in words): mouse, in vivo. On the procedure:
Acute toxi- General behaviour of the albino
city in the mouse with different doses*
as §6, §7

The conditions of series [12]: Randall and Lehmann, J. Pharmacol. Exp. Therap. 93, 314 (1948), cited from earlier work.
For series [13] the following is noted: Marshall, Brit. J. Pharmacol. 10, 270 (1955), technique of Schild, cited from earlier work.
Series [14] relates to albino mouse. In words: Acute toxicity in the albino mouse. To be noted: mouse, in vivo. On the procedure: as §1, §2
Series [15] can be described thus: Potentiation of the effect of hexobarbital. To be noted: in vivo. The source says: (§8) These compounds are useful as neuroleptics.
A short description of series [16]: Neuroleptic effects. To be noted: in vivo.
Excerpt: as §8

Setting [17] is: mouse, iv, Table 2, i.v., read-out: Acute toxicity in the albino mouse LD50 i.v.
The mark [18] stands for this setting: mouse, po, Table 2, p.o., read-out: Acute toxicity in the albino mouse LD50 p.o.
The mark [19] stands for this setting: drug per os, Examples 28, 29: 50 to 300 mg/kg, read-out: Reserpine antagonism, Curative Sedation ED50.
[20] abbreviates: drug per os, Examples 28, 29: 50 to 300 mg/kg, read-out: Reserpine antagonism, Curative ptosis ED50.
Setting [21] is: drug per os, read-out: Reserpine antagonism, Preventive Sedation ED50.
The mark [22] stands for this setting: drug per os, read-out: Reserpine antagonism, Preventive ptosis ED50.
The mark [23] stands for this setting: listed as 1 methyl-4,4-diphenylpiperidine.
The mark [24] stands for this setting: doses from 50 to 300 mg/kg per os.
The mark [25] stands for this setting: 18 h, doses from 50 to 300 mg/kg per os.
[26] abbreviates: 18 h, doses from 50 to 300 mg/kg per os, read-out: Reserpine antagonism, Preventive Sedation ED50, 18 h.
[27] abbreviates: drug per os, Examples 28, 29: 50 to 300 mg/kg.

Structures are written as SMILES. Read-outs that look alike come from different tables or passages of the source.

Consider `CC(C)N1CCC(c2ccccc2)(c2ccccc2)CC1` [Example 4, 1-Isopropyl-4,4-diphenylpiperidine], for which the figures for the LD50 in series [1] (setting [17]) and in series [1] (setting [18]) were 20 mg/kg and 150 mg/kg, respectively. For the same compound, the “Locomotory activity (restlessness in movements), increase by” value in series [2] is 20%. Also, the “Potentiating effect on noradrenaline” value in series [3] was “Present”. In addition, the “Increase in blood pressure” value in series [4] is reported as “Slight increase”. Moreover, the ED50 (commonly the dose that gives a 50% effect, or the effect in half of the subjects) was 13 mg/kg in [5] (setting [19]); more than 50 mg/kg in [5] (setting [20]); 3 mg/kg in [5] (setting [21]); 16 mg/kg in series [5] (setting [22]); 1.5 mg/kg in series [8]; 7 mg/kg in series [9]. In [6], the Tachyphylaxis entry is given as “None”. The Exophthalmus result in series [7] was “Absent”. Besides, the Saliva secretion entry in series [10] is listed as “No secretion”. Also, in series [11] (albino mouse), the Locomotory activity result is reported as “(+)”. In addition, the “Restlessness Stereotype” value in series [11] (albino mouse) was “.phi. (no effect)”. In addition, the Salivation result in [11] (albino mouse) was “.phi. (no effect)”. The Vigilance result in series [11] (albino mouse) is “++”.

Regarding `CC(N)Cc1ccccc1` (stereo not drawn) [Amphetamine, reference compound], the LD50 in series [1] (po, Table 1, albino mouse perorally, read-out: Acute toxicity) amounted to 100 mg/kg. Besides, the “Locomotory activity (restlessness in movements), increase by” value in series [2] was 100%. Besides, in series [3], the “Potentiating effect on noradrenaline” value is listed as “Present”. Also, in series [4], the “Increase in blood pressure” value is listed as “Pronounced”. The Tachyphylaxis entry in [6] is “Pronounced”. Also, the Exophthalmus entry in series [7] is given as “Present”. Further, the Saliva secretion entry in [10] was “Pronounced”.

As to `CN1CCC(c2ccccc2)(c2ccccc2)CC1` [Example 1, 1-Methyl-4,4-diphenylpiperidine], the LD50 in series [1] (setting [17]) amounted to 45 mg/kg; in series [1] (setting [18]) it was 140 mg/kg. In addition, the median effective dose (ED50) is 10 mg/kg in series [5] (setting [19]); more than 50 mg/kg in series [5] (setting [20]); 3 mg/kg in series [5] (setting [21]); 4 mg/kg in series [5] (setting [22]); 1 mg/kg in series [8]; 3 mg/kg in [9]. Also, the Analgesic activity entry in series [12] (listed as 1-methyl-4,4-diphenylpiperidine) is “devoid of analgesic activity”; in series [12] (setting [23]), “devoid of analgesic action”. Also, the Antihistaminic activity result is recorded as “devoid of any therapeutically utilizable antihistaminic activity” in [13] (listed as 1-Methyl-4,4-diphenylpiperidine) and “devoid of any therapeutically-utilizable antihistaminic activity” in series [13] (setting [23]). Also, in series [11] (albino mouse), the “Locomotory activity (in words)” value was “only slightly increased”. Moreover, the “Restlessness, stereotypia or salivation (in words)” value in series [11] (albino mouse) is “without causing restlessness, sterotypia or salivation”. In [11] (albino mouse), the “Vigilance of the animal (in words)” value is “strong increase”. Further, the Locomotory activity entry in series [11] (albino mouse) is reported as “(+)”. Also, the “Restlessness Stereotype” value in series [11] (albino mouse) is listed as “.phi. (no effect)”. Also, the Salivation entry in [11] (albino mouse) is “.phi. (no effect)”. Further, in series [11] (albino mouse), the Vigilance result is recorded as “++”.

In the case of `O=C(CCCN1CCC(c2ccccc2)(c2ccccc2)CC1)c1ccccc1` [Example 29, 1-(3-Benzoylpropyl)-4,4-diphenylpiperidine], the “Acute toxicity (in words)” value in series [14] was “very low acute toxicity”. In [5] (setting [24]), the “Reserpine antagonism, Preventive Sedation ED50, 3 h” value is reported as “.phi. (no effect)” and the “Reserpine antagonism, Preventive ptosis ED50, 3 h” value was “.phi. (no effect)”. Besides, the “Reserpine antagonism, Preventive ptosis ED50, 18 h” value in [5] (setting [25]) is recorded as “.phi. (no effect)”. Further, the ED50 in series [5] (setting [26]) is 100 mg/kg. In addition, in series [5] (setting [27]), the “Reserpine antagonism, Curative Sedation ED50” value is “.phi. (no effect)” and the “Reserpine antagonism, Curative ptosis ED50” value was “.phi. (no effect)”. Besides, the “Effect on hexobarbital (in words)” value in series [15] is “potentiate the effect of hexobarbital”. Also, the “Tremorine tremor antagonism ED50” value in series [8] is listed as “.phi. (no effect)”. In addition, in [9], the ED50 came out at 50 mg/kg and the “Anticataleptic action (in words)” value is recorded as “exhibit anticataleptic action”. The “Neuroleptic effects (in words)” value in series [16] is given as “exhibit neuroleptic effects”. For the same compound, in [11] (albino mouse), the “Vigilance of the animal (in words)” value is recorded as “somewhat reduce vigilance”, the Locomotory activity result is listed as “- (decrease)”, the “Restlessness Stereotype” value is on record as “.phi. (no effect)” and the Salivation entry is “.phi. (no effect)”. Also, the Vigilance result in series [11] (albino mouse) is “- (decrease)”. Also, the “Sedation of animals (in words)” value in series [11] was “induce sedation”.

On to `O=C(CCCN1CCC(c2ccccc2)(c2ccccc2)CC1)c1ccc(F)cc1` [Example 28, 1-[3-(p-Fluorobenzoyl)propyl]-4,4-diphenylpiperidine], for which the LD50 in [1] (setting [18]) turned out to be 3800 mg/kg. For the same compound, in series [14], the “Acute toxicity (in words)” value was “very low acute toxicity”. In [5] (setting [24]), the “Reserpine antagonism, Preventive Sedation ED50, 3 h” value was “.phi. (no effect)” and the “Reserpine antagonism, Preventive ptosis ED50, 3 h” value is given as “.phi. (no effect)”. Moreover, the “Reserpine antagonism, Preventive ptosis ED50, 18 h” value in [5] (setting [25]) is “.phi. (no effect)”. For the same compound, the ED50 in series [5] (setting [26]) turned out to be 300 mg/kg. Moreover, in series [5] (setting [27]), the “Reserpine antagonism, Curative Sedation ED50” value was “.phi. (no effect)” and the “Reserpine antagonism, Curative ptosis ED50” value is given as “.phi. (no effect)”. Further, the “Effect on hexobarbital (in words)” value in [15] is on record as “potentiate the effect of hexobarbital”. In addition, the “Tremorine tremor antagonism ED50” value in [8] was “.phi. (no effect)”. In [9], it took a dose of 50 mg/kg to reach the 50% effect level (ED50) and the “Anticataleptic action (in words)” value is given as “exhibit anticataleptic action”. Further, the “Neuroleptic effects (in words)” value in [16] is reported as “exhibit neuroleptic effects”. In series [11] (albino mouse), the “Vigilance of the animal (in words)” value is “somewhat reduce vigilance”, the Locomotory activity result is recorded as “- (decrease)”, the “Restlessness Stereotype” value is recorded as “.phi. (no effect)” and the Salivation result is listed as “.phi. (no effect)”. In series [11] (albino mouse), the Vigilance entry is recorded as “- (decrease)”. Further, the “Sedation of animals (in words)” value in series [11] is on record as “induce sedation”.
